Data as given in patent US10604526B2, “Chemokine receptor modulators and uses thereof” (RAPT THERAPEUTICS, INC., priority 2016, dated 2020).
pIC50: −log10 of the molar value.

Molecular target: T1, hCCR4 (Homo sapiens, UniProt P51679)
T1 sequence (P51679 1-360): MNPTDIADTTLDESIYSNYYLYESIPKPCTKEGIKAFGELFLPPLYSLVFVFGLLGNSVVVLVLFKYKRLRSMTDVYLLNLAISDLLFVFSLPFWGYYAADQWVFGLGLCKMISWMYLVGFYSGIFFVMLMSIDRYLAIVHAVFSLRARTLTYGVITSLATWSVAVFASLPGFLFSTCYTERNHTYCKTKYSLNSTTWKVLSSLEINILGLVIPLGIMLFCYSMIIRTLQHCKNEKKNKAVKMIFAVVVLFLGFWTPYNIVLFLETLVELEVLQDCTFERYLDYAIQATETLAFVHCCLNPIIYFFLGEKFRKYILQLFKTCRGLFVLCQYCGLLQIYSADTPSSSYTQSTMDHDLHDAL
Assay: Calcium flux assay
Assay type: cell-based
Details: Chem5-hCCR4 cells, CCL22 at EC80 of 1.5 nM, FLIPR Calcium 6 dye; read-out: Potency (IC50)
Experimental: Calcium Flux Assay. Compounds were evaluated in a calcium flux assay substantially performed as follows. Chem5-hCCR4 cells (EMD Millipore, Hayward, Calif.; HTS009C) were cultured under standard conditions and frozen in aliquots of 10×10^6 cells/mL. The day prior to compound testing, a vial was rapidly thawed and pipetted into 20 mL media (DMEM+10% FBS+1% Pen-Strep+1% L-glutamine). Cells were harvested by centrifugation and re-suspended in fresh culture medium. 25 μL of cell suspension was seeded into 384-well plates (Corning, Tewksbury, Mass.; CellBind with black wall/clear bottom). The plates were centrifuged at 300 g for 10 seconds and incubated overnight at 37° C. and 5% CO2. The day of compound testing, media was removed from the plates and 25 μL serum free media was added to each well. Plates were returned to the incubator for 2 h. 25 μL assay buffer (Hank's balanced salt solution+20 mM HEPES pH 7.4) containing FLIPR Calcium 6 dye (Molecular Devices, Sunnyvale, Calif.; # R8191) and probenecid (2.5 mM) was added to each well and incubated at 37° C. and 5% CO2 for 2 h. Compounds in DMSO were added to the plates using an HP D300e digital dispenser, and all wells were normalized to contain 0.25 μL (0.5%) DMSO. Plates were incubated for 1 hour at 37° C. and 5% CO2. CCL22 (Peprotech; Rockyhill, N.J.) was diluted in assay buffer containing 0.1% BSA to 7.5 nM (corresponding to 5×EC80 of 1.5 nM).
Assay plates and working solution of CCL22 were transferred to the FlexStation plate reader (Molecular Devices) at 37° C. for 5 min of equilibration. Fluorescence recordings at 485 excitation/525 emission were performed at 2.5 second intervals. At t=16 seconds, 12.5 μL of CCL22 solution was added to each well and reads continued for 30 seconds at 2.5 second intervals. The minimum fluorescence (Fmin) was calculated by averaging the reads prior to ligand addition and the change in fluorescence (ΔF) was calculated by subtracting the Fmin from the average of the reads following ligand addition. The response ΔF/Fmin was plotted as a function of the compound concentration and the IC50 values were determined by non-linear regression analysis using a 4-parameter fit in either PRISM software (GraphPad; La Jolla, Calif.) or Dotmatics Browser.

pIC50 | SMILES
> 7.00 | C[C@H](c1ccc(Cl)cc1Cl)n1nc(C#N)c2ncc(N3CC(C4CCCN(C5CCS(=O)(=O)CC5)C4)C3)nc21 (mixture of isomers) [Example 61, 1-((R)-1-(2,4-dichlorophenyl)ethyl)-6-(3-((R)-1-(1,1-dioxidotetrahydro-2H-thiopyran-4-yl)piperidin-3-yl)azetidin-1-yl)-1H-pyrazolo[3,4-b]pyrazine-3-carbonitrile and 1-((R)-1-(2,4-dichlorophenyl)ethyl)-6-(3-((S)-1-(1,1-dioxidotetrahydro-2H-thiopyran-4-yl)piperidin-3-yl)azetidin-1-yl)-1H-pyrazolo[3,4-b]pyrazine-3-carbonitrile]
> 7.00 | C[C@H](c1ccc(Cl)cc1Cl)n1nc(C#N)c2ncc(N3CC(C4CCCN(C5CCOCC5)C4)C3)nc21 (mixture of isomers) [Example 62, 1-((R)-1-(2,4-dichlorophenyl)ethyl)-6-(3-((R)-1-(tetrahydro-2H-pyran-4-yl)piperidin-3-yl)azetidin-1-yl)-1H-pyrazolo[3,4-b]pyrazine-3-carbonitrile and 1-((R)-1-(2,4-dichlorophenyl)ethyl)-6-(3-((S)-1-(tetrahydro-2H-pyran-4-yl)piperidin-3-yl)azetidin-1-yl)-1H-pyrazolo[3,4-b]pyrazine-3-carbonitrile]
> 7.00 | CC(=O)NCCN1CCCC(C2CN(c3cnc4c(C)nn([C@H](C)c5ccc(Cl)cc5Cl)c4n3)C2)C1 (mixture of isomers) [Example 63, N-(2-((R)-3-(1-(1-((R)-1-(2,4-dichlorophenyl)ethyl)-3-methyl-1H-pyrazolo[3,4-b]pyrazin-6-yl)azetidin-3-yl)piperidin-1-yl)ethyl)acetamide and N-(2-((S)-3-(1-(1-((R)-1-(2,4-dichlorophenyl)ethyl)-3-methyl-1H-pyrazolo[3,4-b]pyrazin-6-yl)azetidin-3-yl)piperidin-1-yl)ethyl)acetamide]
> 7.00 | Cc1nn([C@H](C)c2ccc(Cl)cc2Cl)c2nc(N3CC(C4CCCN(CCNS(C)(=O)=O)C4)C3)cnc12 (mixture of isomers) [Example 64, N-[2-[(R)-3-[1-[1-[(1R)-1-(2,4-dichlorophenyl)ethyl]-3-methyl-pyrazolo[3,4-b]pyrazin-6-yl]azetidin-3-yl]-1-piperidyl]ethyl]methanesulfonamide and N-[2-[(S)-3-[1-[1-[(1R)-1-(2,4-dichlorophenyl)ethyl]-3-methyl-pyrazolo[3,4-b]pyrazin-6-yl]azetidin-3-yl]-1-piperidyl]ethyl]methanesulfonamide]
> 7.00 | Cc1nn([C@H](C)c2ccc(Cl)cc2Cl)c2nc(N3CC(C4CCCN(CCNS(=O)(=O)C(C)C)C4)C3)cnc12 (mixture of isomers) [Example 65, N-(2-((R)-3-(1-(1-((R)-1-(2,4-dichlorophenyl)ethyl)-3-methyl-1H-pyrazolo[3,4-b]pyrazin-6-yl)azetidin-3-yl)piperidin-1-yl)ethyl)propane-2-sulfonamide and N-(2-((S)-3-(1-(1-((R)-1-(2,4-dichlorophenyl)ethyl)-3-methyl-1H-pyrazolo[3,4-b]pyrazin-6-yl)azetidin-3-yl)piperidin-1-yl)ethyl)propane-2-sulfonamide]
> 7.00 | COC(=O)NCCN1CCCC(C2CN(c3cnc4c(C)nn([C@H](C)c5ccc(Cl)cc5Cl)c4n3)C2)C1 (mixture of isomers) [Example 67, Methyl (2-((R)-3-(1-(1-((R)-1-(2,4-dichlorophenyl)ethyl)-3-methyl-1H-pyrazolo[3,4-b]pyrazin-6-yl)azetidin-3-yl)piperidin-1-yl)ethyl)carbamate and methyl (2-((S)-3-(1-(1-((R)-1-(2,4-dichlorophenyl)ethyl)-3-methyl-1H-pyrazolo[3,4-b]pyrazin-6-yl)azetidin-3-yl)piperidin-1-yl)ethyl)carbamate]
< 6.30 | Cc1nn([C@H](C)c2ccc(Cl)cc2Cl)c2nc(N3CC([C@@H]4CCCN(CC(=O)O)C4)C3)cnc12 (single isomer, unassigned) [Example 2]
< 6.30 | Cc1nn([C@H](C)c2ccc(Cl)cc2Cl)c2nc(N3CC([C@H]4CCCN(CC(=O)O)C4)C3)cnc12 (single isomer, unassigned) [Example 3]
< 6.30 | Cc1nn([C@H](C)c2ccc(Cl)cc2Cl)c2nc(N3CC([C@@H]4CCCN(CCS(N)(=O)=O)C4)C3)cnc12 (single isomer, unassigned) [Example 5]
> 7.00 | Cc1nn([C@H](C)c2ccc(Cl)cc2Cl)c2nc(N3CC([C@H]4CCCN(CCS(N)(=O)=O)C4)C3)cnc12 (single isomer, unassigned) [Example 6]
> 7.00 | Cc1nn([C@H](C)c2ccc(Cl)cc2Cl)c2nc(N3CC([C@H]4CCCN(CCC(=O)O)C4)C3)cnc12 (single isomer, unassigned) [Example 8]
< 6.30 | Cc1nn([C@H](C)c2ccc(Cl)cc2Cl)c2nc(N3CC([C@@H]4CCCN(CCC(=O)O)C4)C3)cnc12 (single isomer, unassigned) [Example 9]
> 7.00 | Cc1nn([C@H](C)c2ccc(Cl)cc2Cl)c2nc(N3CC([C@H]4CCCN(CCCC(=O)O)C4)C3)cnc12 (single isomer, unassigned) [Example 10]
6.30 to 7.00 | Cc1nn([C@H](C)c2ccc(Cl)cc2Cl)c2nc(N3CC([C@@H]4CCCN(CCCC(=O)O)C4)C3)cnc12 (single isomer, unassigned) [Example 11]
6.30 to 7.00 | Cc1nn([C@H](C)c2ccc(Cl)cc2Cl)c2nc(N3CC([C@@H]4CCCN(CCC(N)=O)C4)C3)cnc12 (single isomer, unassigned) [Example 12]
> 7.00 | Cc1nn([C@H](C)c2ccc(Cl)cc2Cl)c2nc(N3CC([C@H]4CCCN(CCC(N)=O)C4)C3)cnc12 (single isomer, unassigned) [Example 13]
> 7.00 | Cc1nn([C@H](C)c2ccc(Cl)cc2Cl)c2nc(N3CC([C@H]4CCCN(CCCO)C4)C3)cnc12 (single isomer, unassigned) [Example 14]
6.30 to 7.00 | Cc1nn([C@H](C)c2ccc(Cl)cc2Cl)c2nc(N3CC([C@@H]4CCCN(CCCO)C4)C3)cnc12 (single isomer, unassigned) [Example 15]
> 7.00 | C[C@H](c1ccc(Cl)cc1Cl)n1nc(C#N)c2ncc(N3CC([C@H]4CCCN(CCCC(=O)O)C4)C3)nc21 (single isomer, unassigned) [Example 18]
> 7.00 | C[C@H](c1ccc(Cl)cc1Cl)n1nc(C#N)c2ncc(N3CC([C@@H]4CCCN(CCCC(=O)O)C4)C3)nc21 (single isomer, unassigned) [Example 19]
> 7.00 | C[C@H](c1ccc(Cl)cc1Cl)n1nc(C#N)c2ncc(N3CC([C@@H]4CCCN(CCC(N)=O)C4)C3)nc21 (single isomer, unassigned) [Example 25]
> 7.00 | C[C@H](c1ccc(Cl)cc1Cl)n1nc(C#N)c2ncc(N3CC([C@H]4CCCN(CCC(N)=O)C4)C3)nc21 (single isomer, unassigned) [Example 26]
> 7.00 | CC(O)CN1CCC[C@H](C2CN(c3cnc4c(C#N)nn([C@H](C)c5ccc(Cl)cc5Cl)c4n3)C2)C1 (single isomer, unassigned) [Example 28]
> 7.00 | CC(O)CN1CCC[C@H](C2CN(c3cnc4c(C#N)nn([C@H](C)c5ccc(Cl)cc5Cl)c4n3)C2)C1 (single isomer, unassigned) [Example 29]
